Source: paper PMC4749168, “Potentiation of ΔF508- and G551D-CFTR-Mediated Cl^- Current by Novel Hydroxypyrazolines” (PLoS ONE, 2016)
Values joined by “and” are separate entries in the source; they are usually repeats but may differ in a detail not shown here. Equal entries are not always repeated.

Assays:
Assay type in all cases: cell-based
[1] = biological target: T1, CFTR (Homo sapiens, UniProt P13569); test: Short-circuit current in primary cultures of normal human nasal epithelial cells; conditions: 0.5 μM forskolin, amiloride pretreatment
T1 construct: endogenous in cells; host or cells: primary cultures of normal human nasal epithelial cells (provided by Dr. Jaeyoung Choi), passage 2, air-liquid interface
Description: (§1) Snapwell inserts containing CFTR-expressing FRT and primary culture of human nasal epithelial cells were mounted in Ussing chambers (Physiologic Instruments, San Diego, CA). Forskolin, genistein, CP7q and CFTRinh-172 were added to the apical and basolateral bath solution. For FRT cells, the apical bath was filled with a half-Cl^- solution and the basolateral bath was filled with HCO3^—buffered solution, and the basolateral membrane was permeabilized with 250 μg/mL amphotericin B. For primary cultures of human nasal epithelial cells, symmetrical HCO3^—buffered solutions were used and ENaC was inhibited by pre-treatment with amiloride (100 μM). All cells were bathed for a 20 min stabilization period and aerated with 95% O2 / 5% CO2 at 37°C. Apical membrane current and short-circuit current were measured with an EVC4000 Multi-Channel V/I Clamp (World Precision Instruments, Sarasota, FL) and recorded using PowerLab 4/35 (AD Instruments, Castle Hill, Australia). Data were collected and analyzed with ADInstruments acquisition software Labchart Pro 7 software. The sampling rate was 4 Hz.

[2] = biological target: T2, ΔF508-CFTR (Homo sapiens, UniProt P13569, DEL508-508); test: Whole-cell patch-clamp in FRT cells expressing ΔF508-CFTR; set-up: expressed in transfected cells; host or cells: Fisher rat thyroid (FRT) cells, co-expressing halide sensor YFP-H148Q/I152L; provided by Dr. Alan Verkman
Description: (§2) Whole-cell patch-clamp recordings were performed on WT- or ΔF508-CFTR-expressing FRT cells. The bath solution contained (in mM): 140 NMDG-Cl, 1 CaCl2, 1 MgCl2, 10 glucose and 10 HEPES (pH 7.4). The pipette solution contained (in mM): 130 CsCl, 0.5 EGTA, 1 MgCl2, 1 Tris-ATP, and 10 HEPES (pH 7.2). Pipettes were pulled from borosilicate glass and had resistances of 3–5 MΩ after fire polishing. Seal resistances were between 3 and 10 GΩ. After establishing the whole-cell configuration, CFTR was activated by forskolin and/or CP7q. Whole-cell currents were elicited by applying hyperpolarizing and depolarizing voltage pulses from a holding potential of 0 mV to potentials between -80 mV and +80 mV in steps of 20 mV. Recordings were made at room temperature using an Axopatch-200B (Axon Instruments). Currents were digitized and analyzed using a Digidata 1440A converter (Axon Instruments), and pCLAMP 10.2 software (Molecular Devices, Sunnyvale, CA). Currents were low-pass filtered at 1 kHz and sampled at 5 kHz

[3] = biological target: T2, ΔF508-CFTR; test: Apical membrane current (Ussing chamber) in FRT cells expressing low temperature-rescued ΔF508-CFTR; set-up: expressed in transfected cells; host or cells: Fisher rat thyroid (FRT) cells, co-expressing halide sensor YFP-H148Q/I152L; provided by Dr. Alan Verkman; conditions: 20 μM forskolin
Description: as §1

[4] = biological target: T3, WT-CFTR (Homo sapiens, UniProt P13569); test: Apical membrane current (Ussing chamber) in FRT cells expressing WT-CFTR
T3 construct: expressed in transfected cells; host or cells: Fisher rat thyroid (FRT) cells, co-expressing halide sensor YFP-H148Q/I152L; provided by Dr. Alan Verkman
Description: as §1

[5] = biological target: T3, WT-CFTR; test: Whole-cell patch-clamp in FRT cells expressing WT-CFTR
Description: as §2

[6] = whole cell patch-clamp, no forskolin

T2 sequence (P13569 with tags, fused parts or gaps DEL508-508): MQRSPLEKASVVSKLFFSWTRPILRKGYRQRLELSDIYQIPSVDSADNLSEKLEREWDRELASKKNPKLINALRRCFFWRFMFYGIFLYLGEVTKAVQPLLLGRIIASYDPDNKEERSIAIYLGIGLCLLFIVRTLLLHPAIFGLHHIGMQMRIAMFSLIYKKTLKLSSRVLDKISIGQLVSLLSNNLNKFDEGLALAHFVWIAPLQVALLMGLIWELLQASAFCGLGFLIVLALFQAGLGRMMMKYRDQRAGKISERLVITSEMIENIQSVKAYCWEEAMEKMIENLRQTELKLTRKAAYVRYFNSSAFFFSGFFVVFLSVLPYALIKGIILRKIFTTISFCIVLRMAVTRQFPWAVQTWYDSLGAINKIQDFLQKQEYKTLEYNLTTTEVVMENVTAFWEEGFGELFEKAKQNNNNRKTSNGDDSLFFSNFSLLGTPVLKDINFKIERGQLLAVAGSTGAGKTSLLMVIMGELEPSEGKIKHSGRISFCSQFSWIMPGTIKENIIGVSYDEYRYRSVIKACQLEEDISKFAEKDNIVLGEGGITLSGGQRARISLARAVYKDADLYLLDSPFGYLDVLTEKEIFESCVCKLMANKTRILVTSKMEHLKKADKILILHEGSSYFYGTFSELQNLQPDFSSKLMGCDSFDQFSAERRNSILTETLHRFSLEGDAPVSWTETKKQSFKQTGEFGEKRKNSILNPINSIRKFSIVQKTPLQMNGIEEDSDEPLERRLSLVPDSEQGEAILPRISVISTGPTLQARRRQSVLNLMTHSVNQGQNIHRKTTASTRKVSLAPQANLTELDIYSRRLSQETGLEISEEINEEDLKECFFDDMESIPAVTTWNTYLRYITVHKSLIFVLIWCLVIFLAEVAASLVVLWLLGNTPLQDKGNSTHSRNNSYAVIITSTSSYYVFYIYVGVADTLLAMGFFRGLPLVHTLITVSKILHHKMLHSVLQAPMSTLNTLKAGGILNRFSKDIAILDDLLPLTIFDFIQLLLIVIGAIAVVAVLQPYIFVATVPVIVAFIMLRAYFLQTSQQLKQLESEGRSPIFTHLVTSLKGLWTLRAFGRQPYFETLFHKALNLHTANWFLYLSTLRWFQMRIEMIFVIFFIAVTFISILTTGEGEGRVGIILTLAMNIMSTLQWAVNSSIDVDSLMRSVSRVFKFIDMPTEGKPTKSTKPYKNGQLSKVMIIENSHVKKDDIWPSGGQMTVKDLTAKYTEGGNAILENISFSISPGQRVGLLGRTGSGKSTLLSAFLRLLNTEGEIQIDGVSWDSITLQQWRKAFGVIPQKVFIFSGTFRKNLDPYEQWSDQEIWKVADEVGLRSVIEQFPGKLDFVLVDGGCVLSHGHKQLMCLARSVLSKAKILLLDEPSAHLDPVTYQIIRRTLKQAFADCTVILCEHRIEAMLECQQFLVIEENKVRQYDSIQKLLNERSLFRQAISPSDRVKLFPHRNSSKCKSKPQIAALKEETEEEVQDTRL
T1 sequence (P13569 whole entry): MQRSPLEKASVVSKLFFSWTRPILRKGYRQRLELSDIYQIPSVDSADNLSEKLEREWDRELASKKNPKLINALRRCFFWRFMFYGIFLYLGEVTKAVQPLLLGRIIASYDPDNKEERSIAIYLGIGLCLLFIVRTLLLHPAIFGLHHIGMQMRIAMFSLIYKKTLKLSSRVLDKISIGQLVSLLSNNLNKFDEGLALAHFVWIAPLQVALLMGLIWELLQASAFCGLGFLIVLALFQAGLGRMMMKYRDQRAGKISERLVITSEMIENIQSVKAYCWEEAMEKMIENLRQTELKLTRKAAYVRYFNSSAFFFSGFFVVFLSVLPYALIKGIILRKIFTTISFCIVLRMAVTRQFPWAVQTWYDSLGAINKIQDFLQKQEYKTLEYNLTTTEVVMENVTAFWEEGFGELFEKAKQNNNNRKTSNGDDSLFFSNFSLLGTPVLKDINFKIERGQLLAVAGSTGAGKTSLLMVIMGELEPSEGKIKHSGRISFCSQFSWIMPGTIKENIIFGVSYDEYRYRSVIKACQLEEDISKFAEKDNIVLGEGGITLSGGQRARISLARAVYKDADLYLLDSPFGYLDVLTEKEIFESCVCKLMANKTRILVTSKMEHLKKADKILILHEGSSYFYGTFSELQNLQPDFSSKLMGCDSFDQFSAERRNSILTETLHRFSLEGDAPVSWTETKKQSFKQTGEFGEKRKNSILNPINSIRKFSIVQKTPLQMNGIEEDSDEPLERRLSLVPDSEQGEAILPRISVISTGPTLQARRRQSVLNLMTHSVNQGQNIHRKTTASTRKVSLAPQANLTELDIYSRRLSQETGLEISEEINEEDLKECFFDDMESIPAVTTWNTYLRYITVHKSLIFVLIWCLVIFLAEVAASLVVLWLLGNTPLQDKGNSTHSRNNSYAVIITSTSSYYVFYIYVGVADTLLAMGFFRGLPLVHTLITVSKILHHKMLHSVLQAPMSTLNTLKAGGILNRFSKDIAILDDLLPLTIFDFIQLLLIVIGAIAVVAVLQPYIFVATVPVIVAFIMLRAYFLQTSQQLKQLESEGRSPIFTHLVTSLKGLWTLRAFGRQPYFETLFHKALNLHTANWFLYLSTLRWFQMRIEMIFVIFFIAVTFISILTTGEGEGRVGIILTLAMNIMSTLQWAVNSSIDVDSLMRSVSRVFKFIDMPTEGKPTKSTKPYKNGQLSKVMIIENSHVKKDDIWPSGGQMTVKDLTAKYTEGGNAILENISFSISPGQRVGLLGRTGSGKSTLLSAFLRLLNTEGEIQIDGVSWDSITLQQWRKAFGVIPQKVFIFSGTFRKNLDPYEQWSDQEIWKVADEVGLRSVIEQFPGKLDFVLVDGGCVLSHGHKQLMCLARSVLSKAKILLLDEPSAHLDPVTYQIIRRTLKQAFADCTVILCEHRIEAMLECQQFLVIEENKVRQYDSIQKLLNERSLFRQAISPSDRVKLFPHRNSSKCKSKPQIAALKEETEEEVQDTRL

For `COc1ccc(C2CC(c3ccc(O)cc3O)=NN2c2ccc(S(N)(=O)=O)cc2)c(OC)c1` (stereo not drawn) [Compound 7q, 4-[3-(2,4-dihydroxyphenyl)-5-(2,4-dimethoxyphenyl)-4,5-dihydro-1H-pyrazol-1-yl] benzenesulfonamide], the “Potentiation of CFTR Cl- current (short-circuit current)” value [1] was “remarkably potentiated”, the “Potentiation of whole-cell ΔF508-CFTR Cl- current” value ([2]; 10 μM forskolin, 10 μM CP7q, 27°C rescue) was “significantly potentiated” and the “Activation of ΔF508-CFTR without forskolin stimulation” value [2, 6] was “did not activate”. The “Efficacy of ΔF508-CFTR potentiation compared with genistein” value ([3]; genistein 50 μM) was “slightly higher than that of genistein”, the EC50 ([3]; FRT cells, 27°C rescue 24 h) was 4.45 µM and ~4.45 µM and the EC50 ([4]; FRT-WT-CFTR cells, 0.1 μM forskolin) was 0.88 µM and ~0.88 µM. For the same compound, the “Maximum efficacy of CFTR potentiation compared with genistein” value ([4]; WT-CFTR stimulated by 0.1 μM forskolin) was “significantly higher than that of genistein”, the “Potentiation of whole-cell WT-CFTR Cl- current” value ([5]; 0.1 μM forskolin, 10 μM CP7q) was “strongly potentiated” and the “Activation of WT-CFTR without forskolin stimulation” value [5, 6] was “did not activate”.
